In experiment [1] the target is T1, Farnesyl-protein transferase (Ftase) (Bos taurus, UniProt P29702+P49355).
T1 construct: Farnesyl-protein transferase (Ftase) from bovine brain was chromatographed on DEAE-Sephacel; from tissue; host or cells: bovine brain, partially purified (DEAE-Sephacel, N-octyl agarose, mono Q)
The experiment is described as follows: RASIT ASSAY I: inhibition of Ras farnesylation in vitro. The conditions noted are these: Ras-CVLS 3.5 μM, 0.25 μM [3H]FPP. It is filed as biochemical, bovine. How it is done: (§1) The intrinsic farnesyl-protein transferase (FTase) activity of representative compounds of this invention was measured by the assays described below:
Farnesyl-protein transferase (Ftase) from bovine brain was chromatographed on DEAE-Sephacel (Pharmacia, 0-0.8M NaCl gradient elution), N-octyl agarose (Sigma, 0-0.6M Nacl gradient elution), and a mono Q HPLC column (Pharmacia, 0-0.3M NaCl gradient). Ras-CVLS at 3.5 μM, 0.25 μM [^3 H]FPP, and the indicated compounds were incubated with this partially purified enzyme preparation. The Ftase data presented below is a measurement of the ability of the test compound to inhibit Ras farnesylation in vitro.
(§2) Table 8 lists IC50 data which is representative of the intrinsic Ras inhibitory activity of the compounds of this invention. Data of representative compounds from each embodiment and class of the invention is provided. When an inhibitory value is not provided for a given assay, the compound was not tested in that protocol.

The next experiment relates to Aspergillus flavus MF383. The experiment is described as follows: Antifungal MIC, microtiter dilution assay. It is filed as cell-based. The conditions noted are these: 42 hours, 28° C., read-out: Minimum Inhibitory Concentration. How it is done: (§3) The compounds are particularly active towards filamentous fungi and yeasts including Candida albicans and Cryptococcus neoformans. The sensitivity of filamentous fungi and yeast was determined using inhibitor dilution assays in microtiter format. The compounds were dissolved in DMSO at 2 mg/ml and serially diluted in 0.1M phosphate buffer, pH 7.0 in the microtiter dish from 100 to 0.006 μg/ml. A standardized spore suspension for testing the filamentous fungi was prepared by inoculating Antibiotic Medium #3 containing 1.5% agar with spores such that 1.5×10^3 colony forming units were added per well. The microtiter wells were filled with 50 μl of buffer containing compound and 50 μl of inoculated medium.
(§4) The sensitivity of yeasts was determined by inoculating yeast nitrogen base containing 1% dextrose (YNB/G) with aliquots of an overnight yeast culture grown in Yeast Morphology (YM) media at 35° C. and diluting in YNB/G to yield a final concentration of 1.5-7.5×10^3 colony forming units/well. To test the sensitivity of yeast, compound was solubilized in 10 percent aqueous DMSO at 2.56 mg/ml. The compound was diluted serially in YNB/G from 128 to 0.06 μg/ml and further diluted 1:10 in YNB/G. The wells were filled with 150 μl of media containing drug. […] Representative of the antifungal activity are the minimum inhibitory concentration data shown below for representative compounds from the various embodiments and classes described hereinabove.

The test system of another experiment is C. parapsilosis MY1010. Briefly: Antifungal MIC, microtiter dilution assay. It counts as cell-based. The conditions noted are these: Lodderomyces parapsilosis, 24 to 48 hours, 35° C., read-out: Minimum Inhibitory Concentration. How it is done: as §3, §4
For a further experiment, the system named is C. tropicalis MY1012. The experiment is described as follows: Antifungal MIC, microtiter dilution assay. It counts as cell-based. The conditions noted are these: Candida tropicalis, 24 to 48 hours, 35° C., read-out: Minimum Inhibitory Concentration. How it is done:
as §3, §4

For another experiment, the system named is Candida albicans MY1055. Briefly: Antifungal MIC, microtiter dilution assay. It counts as cell-based. The conditions noted are these: 24 to 48 hours, 35° C., read-out: Minimum Inhibitory Concentration. How it is done:
as §3, §4

Another experiment concerns Crypt. neoformans MY1051. The experiment is described as follows: Antifungal MIC, microtiter dilution assay. It is filed as cell-based. The conditions noted are these: Cryptococcus neoformans, 24 to 48 hours, 35° C., read-out: Minimum Inhibitory Concentration. How it is done:
as §3, §4

The target in experiment [2] is T1, Farnesyl-protein transferase (Ftase). The experiment is described as follows: RASIT ASSAY II: inhibition of Ras farnesylation in vitro. It is filed as biochemical, bovine. The conditions noted are these: Ras-CVLS 1.0 μM, 0.5 μM [3H]FPP. How it is done: as §1
Farnesyl-protein transferase (Ftase) from bovine brain was chromatographed on DEAE-Sephacel (Pharmacia, 0-0.8M NaCl gradient elution), N-octyl agarose (Sigma, 0-0.6M Nacl gradient elution), and a mono Q HPLC column (Pharmacia, 0-0.3M NaCl gradient). Ras-CVLS at 1.0 μM, 0.5 μM [^3 H]FPP, and the indicated compounds were incubated with this partially purified enzyme preparation. The Ftase data presented below is a measurement of the ability of the test compound to inhibit Ras farnesylation in vitro.
as §2

≈ marks a conversion by molar mass, not a printed value.

IC50 and MIC data for 13 molecules are collected here from US5506262A, “Cholesterol lowering compounds” (Merck & Co., Inc., priority 1993, dated 1996).

As usually defined, the IC50 is the concentration needed to halve the response being measured. Low values mean inhibition by little substance, high ones a need for much substance. `C=C(CC[C@]12O[C@H](C(=O)O)[C@@](O)(C(=O)O)[C@](C(=O)O)(O1)[C@H](OC(=O)/C=C/[C@@H](C)C[C@@H](C)CC)[C@H]2OC)[C@@H](OC(C)=O)[C@H](C)Cc1ccccc1` [5n']: it took 4000 nM to reach half-maximal inhibition in experiment [1] (IC50). For the same molecule, the MIC in the experiment on Aspergillus flavus MF383 was 4 µg/mL (≈ 5.68 µM); with C. parapsilosis MY1010, 16 µg/mL (≈ 22.7 µM); with C. tropicalis MY1012, 1 µg/mL (≈ 1.42 µM); with Candida albicans MY1055, 4 µg/mL (≈ 5.68 µM); in the experiment on Crypt. neoformans MY1051, 1 µg/mL (≈ 1.42 µM).
Take `C=C(CC[C@]12O[C@H](C(=O)O)[C@@](O)(C(=O)O)[C@](C(=O)O)(O1)[C@H](OCCCCCCCCCCOc1ccc(OC)c(OC)c1)[C@H]2O)[C@@H](OC(C)=O)[C@H](C)Cc1ccccc1` [5q"']: the MIC in the experiment on Aspergillus flavus MF383 came to 1 µg/mL (≈ 1.2 µM); in the experiment with C. parapsilosis MY1010, 1 µg/mL (≈ 1.2 µM); with C. tropicalis MY1012, 128 µg/mL (≈ 154 µM); with Candida albicans MY1055, 8 µg/mL (≈ 9.63 µM); in the experiment with Crypt. neoformans MY1051, 0.25 µg/mL (≈ 0.301 µM).
For `C=C(CC[C@]12O[C@H](C(=O)O)[C@@](O)(C(=O)O)[C@](C(=O)O)(O1)[C@H](OC(=O)NCc1ccccc1)[C@H]2O)[C@@H](OC(C)=O)[C@H](C)Cc1ccccc1` [Compound 5s], the MIC was above 128 µg/mL in the experiment with C. parapsilosis MY1010, above 128 µg/mL in the experiment on C. tropicalis MY1012, 1 µg/mL (≈ 1.49 µM) with Candida albicans MY1055 and 32 µg/mL (≈ 47.6 µM) in the experiment with Crypt. neoformans MY1051.
`C=C(CC[C@]12O[C@H](C(=O)O)[C@@](O)(C(=O)O)[C@](C(=O)O)(O1)[C@H](OC(=O)Nc1ccc(-c3ccccc3)cc1)[C@H]2O)[C@@H](OC(C)=O)[C@H](C)Cc1ccccc1` [Compound 5t]: the MIC with Aspergillus flavus MF383 was 0.5 µg/mL (≈ 0.681 µM); in the experiment on C. parapsilosis MY1010, above 128 µg/mL; with C. tropicalis MY1012, 0.5 µg/mL (≈ 0.681 µM); with Candida albicans MY1055, 8 µg/mL (≈ 10.9 µM); in the experiment with Crypt. neoformans MY1051 it was above 128 µg/mL.
Regarding `C=C(CC[C@]12O[C@H](C(=O)O)[C@@](O)(C(=O)O)[C@](C(=O)O)(O1)[C@H](OC(=O)NCCCCCCCCCCCOc1ccccc1)[C@H]2O)[C@@H](OC(C)=O)[C@H](C)Cc1ccccc1` [Compound 5u], the IC50 in experiment [1] was 500 nM; in experiment [2] it was 27 nM.
As to `C=C(CC[C@]12O[C@H](C(=O)O)[C@@](O)(C(=O)O)[C@](C(=O)O)(O1)[C@H](OC(=O)OCCCCCCCCCCCOc1ccccc1)[C@H]2O)[C@@H](OC(C)=O)[C@H](C)Cc1ccccc1` [Compound 5y], the IC50 in experiment [1] was found to be 500 nM; in experiment [2], 27 nM.
Take `C=C(CC[C@]12O[C@H](C(=O)O)[C@@](O)(C(=O)O)[C@](C(=O)O)(O1)[C@H](OC(=O)/C=C/[C@@H](C)C[C@@H](C)CC)[C@H]2O)[C@@H](OC(=O)CCC)[C@H](C)Cc1ccccc1` [Compound 7b, IA-Cl(4')-Butanoyl tri-acid]: the MIC in the experiment with Aspergillus flavus MF383 stood at 2 µg/mL (≈ 2.78 µM); in the experiment on C. parapsilosis MY1010, 2 µg/mL (≈ 2.78 µM); in the experiment with C. tropicalis MY1012, 2 µg/mL (≈ 2.78 µM); in the experiment with Candida albicans MY1055, 2 µg/mL (≈ 2.78 µM); in the experiment with Crypt. neoformans MY1051 it was 0.5 µg/mL (≈ 0.696 µM).
With `C=C(CC[C@]12O[C@H](C(=O)O)[C@@](O)(C(=O)O)[C@](C(=O)O)(O1)[C@H](OC(=O)/C=C/[C@@H](C)C[C@@H](C)CC)[C@H]2O)[C@@H](OC(=O)c1ccccc1)[C@H](C)Cc1ccccc1` [Compound 7d], the values for the IC50 in experiment [1] and in experiment [2] were 1700 nM and 52 nM, respectively.
In the case of `C=C(CC[C@]12O[C@H](C(N)=O)[C@@](O)(C(=O)O)[C@](C(=O)O)(O1)[C@H](OC(=O)/C=C/[C@@H](C)C[C@@H](C)CC)[C@H]2O)[C@@H](OC(C)=O)[C@H](C)Cc1ccccc1` [Compound 12a, IA-3-carboxamide], the MIC stood at 2 µg/mL (≈ 2.9 µM) in the experiment on Aspergillus flavus MF383; 8 µg/mL (≈ 11.6 µM) in the experiment on C. parapsilosis MY1010; 2 µg/mL (≈ 2.9 µM) in the experiment with C. tropicalis MY1012; 8 µg/mL (≈ 11.6 µM) in the experiment on Candida albicans MY1055; 1 µg/mL (≈ 1.45 µM) in the experiment on Crypt. neoformans MY1051.
As for `C=C(CC[C@]12O[C@H](C(=O)Nc3ccncn3)[C@@](O)(C(=O)O)[C@](C(=O)O)(O1)[C@H](OC(=O)/C=C/[C@@H](C)C[C@@H](C)CC)[C@H]2O)[C@@H](OC(C)=O)[C@H](C)Cc1ccccc1` [Compound 12n, IA-3-(4-amidopyrimidine)], the MIC in the experiment on Aspergillus flavus MF383 came to 2 µg/mL (≈ 2.6 µM); in the experiment on C. parapsilosis MY1010 it was 32 µg/mL (≈ 41.7 µM); with C. tropicalis MY1012, 8 µg/mL (≈ 10.4 µM); in the experiment on Candida albicans MY1055, 16 µg/mL (≈ 20.8 µM); in the experiment with Crypt. neoformans MY1051, 0.25 µg/mL (≈ 0.326 µM).
Regarding `CC[C@H](C)C[C@H](C)CCC(=O)O[C@@H]1[C@@H](O)[C@@]2(CCC(C)[C@@H](OC(C)=O)[C@H](C)Cc3ccccc3)O[C@H](C(=O)O)[C@@](O)(C(=O)O)[C@]1(C(=O)O)O2` (stereo partly drawn) [Compound 24b, (1S,3S,4S,5R,6R,7R)-1-[(4S)-acetoxy-3,5(R)-dimethyl-6-phenyl]hexyl-4,6,7-trihydroxy-6-O-(4(S),6(S)-dimethyl-2-octanoyl)-2,8-dioxabicyclo-[3,2,1]octane-3,4,5-tricarboxylic acid], the IC50 in experiment [1] stood at 1300 nM.
For the molecule `CC[C@H](C)C[C@H](C)CCC(=O)O[C@@H]1[C@@H](O)[C@@]2(CCC(C)C[C@H](C)Cc3ccccc3)O[C@H](C(=O)O)[C@@](O)(C(=O)O)[C@]1(C(=O)O)O2` (stereo partly drawn) [Compound 25b, (1S,3S,4S, 5R,6R,7R)-1-[3,5(R)-dimethyl-6-phenyl]hexyl-4,6,7trihydroxy-6-O-(4(S),6(S)-dimethyl-2-octanoyl)-2,8-dioxabicyclo[3.2.1]octane-3,4,5-tricarboxylic acid], the MIC in the experiment with Aspergillus flavus MF383 is 4 µg/mL (≈ 6.28 µM); with C. parapsilosis MY1010, above 128 µg/mL; in the experiment with C. tropicalis MY1012, 8 µg/mL (≈ 12.6 µM); with Candida albicans MY1055, 8 µg/mL (≈ 12.6 µM); in the experiment on Crypt. neoformans MY1051, 2 µg/mL (≈ 3.14 µM).
In the case of `CC[C@H](C)C[C@H](C)/C=C/C(=O)O[C@@H]1[C@@H](O)[C@@]2(CCCOC(=O)CCCc3ccccc3)O[C@H](C(=O)O)[C@@](O)(C(=O)O)[C@]1(C(=O)O)O2` [Compound 39e, 39-4-phenylbutyrate ester], the IC50 in experiment [1] came to 120 nM; in experiment [2], 19 nM.
